Experimental findings from patent US20260283162A1, “INDOLEACETIC ACID-ENRICHED ALGAE EXTRACT” (FICOSTERRA, S.L., priority 2023, published 2026) are described below.

A short description of this data set: Solubility limit of IAA in water. The data set is classed as physicochemical. The following applies: apparent, from the IAA concentration in the aqueous extract.

Structures are written as SMILES. Values after ≈ are worked out from the molar mass of the structure shown.

What is called solubility is how much of the substance goes into solution per volume. In the case of `O=C(O)Cc1c[nH]c2ccccc12` [IAA, indole-3-acetic acid], the solubility is ~17 µg/mL (≈ 97 µM).
